Measured values published in patent publication US20070142396A1, “Treatment of pain with 1-[3-[4-(3-chlorophenyl)-1-piperazinyl]propyl]-5-methoxy-3,4-dihydro-2(1H)-quinolone or salt thereof” (Vela Pharmaceuticals, Inc., priority 2005, published 2007).

System: rats with L5 spinal nerve ligation (SNL model)
Test: Spinal nerve ligation (L5) neuropathic pain model, mechanical threshold with von Frey filaments (Example 4)
Assay type: in vivo, rat
Conditions: 100 mg/kg oral
From the text: A total of 18 Sprague-Dawley (CD sub-strain) young adult (weight: 150-175 g) male rats were purchased from Harlan Sprague Dawley Company (Indianapolis, Ind.), Alabama colony. The rats were kept three per cage and had free access to food and water. Animals were kept in a room with a reversed light-dark cycle (light: 8:00 PM-8:00 AM) for 1 week before experimental manipulations. Ten rats were allocated to the present study. Eight rats were allocated to the study of Example 5, below.
The spinal nerve ligation (SNL) model of neuropathic pain was produced in all rats as described by Kim and Chung (Pain, 50, 355-363, 1992). Briefly, under gaseous anesthesia using halothane (3% for induction and 1.5% for maintenance) in oxygen, the left L5 spinal nerve was exposed by removing the paraspinal muscles and the transverse process of the L6 vertebra. The very proximal portion of the L5 spinal nerve was tightly ligated with 6-0 silk suture. The wounds were closed and anesthesia was discontinued. Rats were kept on a heated blanket until they had completely recovered from anesthesia.
OPC-14523 was dispersed in 0.5% tragacanth in distilled water at 20 mg/ml. It was administered as a oral injection in a dose of 100 mg/kg body weight. Gabapentin was prepared at 10 mg/ml in saline and was administered at 50 mg/kg body weight i.p. Gabapentin is a drug that was originally developed as an anticonvulsant but is now widely used as an analgesic for neuropathic pain (Abdi et al., Anesthesia & Analgesia 87:1360-1366 (1998)).
Ten rats were utilized in a Latin-square-design study comparing the activity of OPC-14523 and other compounds against neuropathic pain. Behavioral tests were conducted twice (1 day and 1 hour) before, as well as 1 and 4 days after, the neuropathic surgery. […] The ten rats were randomly divided into five groups of two rats each. […]
This procedure was repeated five times. […] The result was that all ten animals received each of the indicated five compounds in random order and then had mechanical thresholds determined at the indicated times.
Behavioral tests were conducted in a non-blind fashion. The foot withdrawal threshold to mechanical stimuli applied to the paw (mechanical threshold) was measured, as an indicator of mechanical sensitivity of the affected paw. The foot withdrawal threshold was measured using von Frey filaments. […] The mechanical thresholds were measured by using the “up-and-down” method (Chaplan et al., J. Neurosci. Methods 53(1):55-63, 1994), following the procedures described in previous studies (Park et al., Pain 87(2):171-179, 2000; Xie et al., J. Pain 2(5):270-278, 2001; Baik et al., J. Pain 4:212-221, 2003). […]

COc1cccc2c1CCC(=O)N2CCCN1CCN(c2cccc(Cl)c2)CC1 [OPC-14523, 1-[3-[4-(3-chlorophenyl)-1-piperazinyl]propyl]-5-methoxy-3,4-dihydro-2(1H)-quinolone]
level of mechanical threshold reached relative to level prior to ligation: comparable to the level observed prior to ligation
effect on mechanical threshold of the lesioned paw for foot withdrawals (0.5-6 hours): significantly increased
